Test results published in patent US12083084B2, “Method for enhancing energy production and metabolism in cells” (REPLICON HEALTH OY, priority 2013, dated 2024).
“Also recorded” adds a separate entry of the source.

Tested on: rat cortical neurons
Assay: LDH viability/cytotoxicity of rat cortical neurons (calorie restriction, high doses)
Type: cell-based
Method: Cell culture. Cortical neurons were dissected from P1 rats and cultured in 96-well plates up to 7 days in the medium containing: neurobasal medium, 1.5% B27 supplement, 1 mM L-glutamine, penicillin/streptomycin.
Treatment of cells with DGAcs was done in two different ways. In all studies the total cultivation time was 7 days (7th day in vitro=7 DIV). In the first study a clear element of calorie restriction (CR) was built in to the standard model provided by the CRO. The other 24 hour pretreatment was without CR (more info in examples 2.1 and 2.2 below). Separately also exceptionally high doses of DGAcs were administered to neurons. […] (Effective dose was […]).
Cell Viability/Cytotoxicity. Cell Viability was Detected by LDH Tests Like in Examples 1.1-1.2.
Cell treatment: concentration of DGAcs (10, 50 and 100 μg/ml) was added into cell culture medium at 4 DIV. After 24 h (at 5 DIV) 25% of medium was changed to fresh containing 1.5× concentration of DGAcs. Same treatment (change 25% with 1.5× concentration) was repeated at 6 DIV. The cells were transferred into Mg^2+-free Locke's buffer containing the same concentrations of DGAcs immediately before imaging experiments (at 7 DIV). For controls the same amount of medium was changed without addition of DGAcs.
Cell treatment according to the protocol renewed only 25% of the medium during 5 DIV and 6 DIV, meaning that neurons received only very small amounts of new nutrition, i.e. experienced calorie restrictions (CR). […] This same phenomenon of increased cell death in CR was already seen with human hepatocytes in previous examples. Likely explanation is the same: DGAcs administration increases metabolic activity in neurons and/or their (aerobic) ATP production and consumption, which leads to enhanced cell cycle control and programmed cell death (apoptosis) in nutritional scarcity. […] Viability loss compared to zero control was highest and statistically significant in 10 μg/ml group but also all other groups experienced loss of viability.

O.O.O=C([O-])[C@H](O)CO.O=C([O-])[C@H](O)CO.[Ca+2] [DGAcs, D-glyceric acid, calcium salt dehydrate]
neuronal viability (LDH) under calorie restriction vs zero control (10, 50 and 100 μg/ml from 4 DIV, only 25% of medium renewed at 5 and 6 DIV, FIG. 13): dose dependent viability loss; also recorded: confirmed statistically significantly
toxicity to neurons (40-200 times the effective treatment dose): No toxicity was observed
Effective dose (rat cortical neurons): 10-50 μg/m
